Experimental data from article PMC4385452 (Bioorganic & medicinal chemistry letters, 2015).

Legend:
[1] = intrinsic clearance in liver microsomes; settings: mouse
[2] = target: T1, human CHT (Homo sapiens, UniProt Q9GZV3, L531A/V532A); assay type: cell-based
T1 sequence (Q9GZV3 1-580 L531A/V532A): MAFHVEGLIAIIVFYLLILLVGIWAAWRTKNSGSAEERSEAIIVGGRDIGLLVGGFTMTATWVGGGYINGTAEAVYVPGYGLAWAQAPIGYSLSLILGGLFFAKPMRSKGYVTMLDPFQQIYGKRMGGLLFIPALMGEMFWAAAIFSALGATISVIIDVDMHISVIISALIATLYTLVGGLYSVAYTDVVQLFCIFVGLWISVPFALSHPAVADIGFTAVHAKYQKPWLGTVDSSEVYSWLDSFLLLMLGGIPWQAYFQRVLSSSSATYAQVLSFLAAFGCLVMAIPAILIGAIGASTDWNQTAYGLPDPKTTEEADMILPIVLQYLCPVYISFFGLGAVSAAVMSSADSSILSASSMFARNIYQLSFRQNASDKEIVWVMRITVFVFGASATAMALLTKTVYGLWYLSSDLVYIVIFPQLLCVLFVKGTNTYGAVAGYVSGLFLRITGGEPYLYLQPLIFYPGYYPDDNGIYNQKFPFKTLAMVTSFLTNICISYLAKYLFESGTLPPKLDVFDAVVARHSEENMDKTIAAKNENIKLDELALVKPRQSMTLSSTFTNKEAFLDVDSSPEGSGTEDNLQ

[3] = cassette tissue distribution study in mice; assay type: in vivo, mouse; settings: 1.0 mg/kg per compound intraperitoneal cassette dose, n = 3
[4] = system: dopamine transporter (DAT); settings: at the highest concentration tested; cited from earlier work

| SMILES | CLint scaled [1] | CHT inhibitory activity [2] | further results |
| --- | --- | --- | --- |
| COc1ccc(C(=O)NCc2csc(C)n2)cc1OC1CCN(C(C)C)CC1 [Compound 10b] | 979 mL/min/kg |  |  |
| COc1ccc(C(=O)NCc2ccc(C)s2)cc1OC1CCN(C(C)C)CC1 [Compound 10c] |  |  | activity at the high choline concentration ([2]; high (10 μM) choline): modest inhibitory activity; activity at the low choline concentration ([2]; low (100 nM) choline): inactive |
| COc1ccc(C(=O)NCc2cc(C(C)C)no2)cc1OC1CCN(C(C)C)CC1 [Compound 10e] | 781 mL/min/kg |  | Brain concentration [3]: BLQ |
| CCn1nc(C)c(CNC(=O)c2ccc(OC)c(OC3CCN(C(C)C)CC3)c2)c1C [Compound 10f] | 29.9 mL/min/kg |  | Brain concentration [3]: BLQ |
| COc1ccc(C(=O)NC(C)Cc2ccccn2)cc1OC1CCN(C(C)C)CC1 (stereo not drawn) [Compound 10k] | 106 mL/min/kg |  |  |
| COc1ccc(C(=O)NCc2cc(C(C)C)no2)cc1OC1CCNCC1 [Compound 10l] |  | much less active |  |
| COc1ccc(C(=O)NCc2cc(C(C)C)no2)cc1OC1CCN(C)CC1 [Compound 10m, N-((3-isopropylisoxazol-5-yl)methyl)-4-methoxy-3-((1-methylpiperidin-4-yl)oxy)benzamide] | 43.7 mL/min/kg | equipotent with the isopropyl analog | DAT inhibitory activity [4]: did not show any inhibitory activity |
| COc1ccc(C(=O)NCc2cc(C(C)C)no2)cc1OC1CCCN(C)C1 (stereo not drawn) [Compound 10n] |  | tolerated, but less active |  |
| COc1ccc(C(=O)NCc2cc(C(C)C)no2)cc1OC1CCCCC1 [Compound 10o] |  | inactive |  |
| COc1ccc(C(=O)NCc2cc(C(C)C)no2)cc1OC1CCCC1 [Compound 10p] |  | inactive |  |
| COc1ccc(C(=O)NCc2cc(C(C)C)no2)cc1OCCN1CCCCC1 [Compound 10q] | 167 mL/min/kg |  |  |
| COc1ccc(C(=O)NCc2cc(C(C)C)no2)cc1OCCN1CCOCC1 [Compound 10r] |  |  | fold less active than the piperidine analog ([2]; morpholine 10r versus piperidine 10q): ~ 10 fold |
| COc1ccc(C(=O)NCc2cc(C(C)C)no2)cc1O [Compound 10v] |  | inactive |  |
